Source: patent US10722514B2 (FLX Bio, Inc., priority 2017, dated 2020)

Molecular target: T1, recombinant full-length USP7 (Homo sapiens, UniProt Q93009)
T1 construct: A 25 μl reaction volume containing recombinant full-length USP7 (62 pM)
Experiment: USP7-mediated ubiquitin-rhodamine cleavage assay
Format: biochemical
Conditions: recombinant full-length USP7 62 pM; ubiquitin-rhodamine 100 nM; 30-minute incubation with compound, 1 hour reaction at room temperature; read-out: Potency: USP7 IC50
Procedure, shortened: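 IC50 values came from fluorescence measured after a 1 h room-temperature reaction of 62 pM enzyme with 100 nM ubiquitin-rhodamine, following 30 min compound preincubation; fits used four parameters.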

T1 sequence (Q93009 whole entry): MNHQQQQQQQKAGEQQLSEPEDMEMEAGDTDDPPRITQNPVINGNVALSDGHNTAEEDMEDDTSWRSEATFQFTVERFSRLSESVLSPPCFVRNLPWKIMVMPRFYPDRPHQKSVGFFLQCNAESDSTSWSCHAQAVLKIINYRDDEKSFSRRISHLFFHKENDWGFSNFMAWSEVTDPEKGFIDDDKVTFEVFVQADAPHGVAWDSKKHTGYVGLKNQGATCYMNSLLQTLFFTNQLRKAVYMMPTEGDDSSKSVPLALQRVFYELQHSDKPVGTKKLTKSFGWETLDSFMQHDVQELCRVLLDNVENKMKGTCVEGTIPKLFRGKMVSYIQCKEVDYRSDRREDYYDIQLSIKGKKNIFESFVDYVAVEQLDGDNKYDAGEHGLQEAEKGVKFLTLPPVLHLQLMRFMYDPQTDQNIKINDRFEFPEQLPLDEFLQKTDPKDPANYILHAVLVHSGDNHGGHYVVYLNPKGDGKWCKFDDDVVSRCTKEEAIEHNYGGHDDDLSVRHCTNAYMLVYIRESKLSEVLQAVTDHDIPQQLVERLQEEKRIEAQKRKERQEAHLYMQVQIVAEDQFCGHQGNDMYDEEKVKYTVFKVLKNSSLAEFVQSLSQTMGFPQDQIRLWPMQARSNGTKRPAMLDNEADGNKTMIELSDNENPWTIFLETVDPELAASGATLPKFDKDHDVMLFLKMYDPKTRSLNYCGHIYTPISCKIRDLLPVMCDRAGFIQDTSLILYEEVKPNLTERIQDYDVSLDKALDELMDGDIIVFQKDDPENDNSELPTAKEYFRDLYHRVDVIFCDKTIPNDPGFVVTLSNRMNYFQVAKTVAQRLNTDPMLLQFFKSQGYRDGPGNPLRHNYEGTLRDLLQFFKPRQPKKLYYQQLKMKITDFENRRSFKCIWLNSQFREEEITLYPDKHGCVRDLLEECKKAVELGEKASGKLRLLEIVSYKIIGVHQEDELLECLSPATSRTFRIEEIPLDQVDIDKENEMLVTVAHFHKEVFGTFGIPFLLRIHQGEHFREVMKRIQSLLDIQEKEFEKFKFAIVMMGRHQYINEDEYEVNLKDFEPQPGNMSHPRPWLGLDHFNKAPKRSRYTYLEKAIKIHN

| Structure (SMILES) | IC50 |
| --- | --- |
| CCC(O)c1cc2ncnc(-c3cc(C#N)cc(C)c3O[C@@H]3CNC[C@@H]3F)c2s1 (stereo partly drawn) [Example 95, 4-(((3R,4S)-4-Fluoropyrrolidin-3-yl)oxy)-3-(6-(1-hydroxypropyl)thieno[3,2-d]pyrimidin-4-yl)-5-methylbenzonitrile] | < 1000 nM |
| Cc1cc(C#N)cc(-c2ccnc3cc(CN4C(=O)CCC4=O)sc23)c1O[C@@H]1CNC[C@@H]1F [Example 97, 3-(2-((2,5-Dioxopyrrolidin-1-yl)methyl)thieno[3,2-b]pyridin-7-yl)-4-(((3R,4S)-4-fluoropyrrolidin-3-yl)oxy)-5-methylbenzonitrile] | < 1000 nM |
| Cc1cc(Cl)cc(-c2ccnc3cc(CN4C(=O)CCC4=O)sc23)c1O[C@@H]1CNC[C@@H]1CO [Example 98, 1-((7-(5-Chloro-2-(((3S,4R)-4-(hydroxymethyl)pyrrolidin-3-yl)oxy)-3-methylphenyl)thieno[3,2-b]pyridin-2-yl)methyl)pyrrolidine-2,5-dione] | < 1000 nM |
| Cc1cc(Cl)cc(-c2ccnc3cc(CN4C(=O)CCC4=O)sc23)c1O[C@@H]1CN[C@@H](C)C1 [Example 99, 1-((7-(5-Chloro-3-methyl-2-(((3S,5S)-5-methylpyrrolidin-3-yl)oxy)phenyl)thieno[3,2-b]pyridin-2-yl)methyl)pyrrolidine-2,5-dione] | < 1000 nM |
| Cc1cc(Cl)cc(-c2ccnc3cc(CN4C(=O)CCC4=O)ccc23)c1O[C@@H]1CNC[C@@H]1F [Example 100, 1-((4-(5-Chloro-2-(((3R,4S)-4-fluoropyrrolidin-3-yl)oxy)-3-methylphenyl)quinolin-7-yl)methyl)pyrrolidine-2,5-dione] | 10000 to 30000 nM |
| Cc1cc(Cl)cc(-c2ccnc3cc(CN4C(=O)CCC4=O)sc23)c1O[C@@H]1CN[C@@H](CF)C1 [Example 101, 1-((7-(5-Chloro-2-(((3S,5R)-5-(fluoromethyl)pyrrolidin-3-yl)oxy)-3-methylphenyl)thieno[3,2-b]pyridin-2-yl)methyl)pyrrolidine-2,5-dione] | < 1000 nM |
| O=C1CCC(=O)N1Cc1cc2nccc(-c3cc(Cl)cc(Br)c3O[C@@H]3CNC[C@@H]3F)c2s1 [Example 102, 1-((7-(3-Bromo-5-chloro-2-(((3R,4S)-4-fluoropyrrolidin-3-yl)oxy)phenyl)thieno[3,2-b]pyridin-2-yl)methyl)pyrrolidine-2,5-dione] | < 1000 nM |
| Cc1cc(Cl)cc(-c2ccnc3cc(CN4C(=O)CCCC4C(F)(F)F)sc23)c1O[C@@H]1CNC[C@@H]1F (stereo partly drawn) [Example 103, 1-((7-(5-Chloro-2-(((3R,4S)-4-fluoropyrrolidin-3-yl)oxy)-3-methylphenyl)thieno[3,2-b]pyridin-2-yl)methyl)-6-(trifluoromethyl)piperidin-2-one] | 1000 to 10000 nM |
| Cc1cc(Cl)cc(-c2ccnc3cc(CN4C(=O)CCC4=O)sc23)c1O[C@@H]1CNC[C@H]1F [Example 104, 1-((7-(5-Chloro-2-(((3R,4R)-4-fluoropyrrolidin-3-yl)oxy)-3-methylphenyl)thieno[3,2-b]pyridin-2-yl)methyl)pyrrolidine-2,5-dione] | < 1000 nM |
| Cc1cc(Cl)cc(-c2ccnc3cc(CN4C(=O)CCC4=O)sc23)c1O[C@@H]1CNC[C@@H]1C [Example 105, 1-((7-(5-Chloro-3-methyl-2-(((3S,4S)-4-methylpyrrolidin-3-yl)oxy)phenyl)thieno[3,2-b]pyridin-2-yl)methyl)pyrrolidine-2,5-dione] | < 1000 nM |
| CO[C@H]1CNC[C@H]1Oc1c(C)cc(Cl)cc1-c1ccnc2cc(CN3C(=O)CCC3=O)sc12 [Example 106, 1-((7-(5-Chloro-2-(((3R,4S)-4-methoxypyrrolidin-3-yl)oxy)-3-methylphenyl)thieno[3,2-b]pyridin-2-yl)methyl)pyrrolidine-2,5-dione] | < 1000 nM |
| Cc1cc(Cl)cc(-c2ccnc3cc(CNS(C)(=O)=O)sc23)c1O[C@@H]1CNC[C@@H]1F [Example 107, N-((7-(5-Chloro-2-(((3R,4S)-4-fluoropyrrolidin-3-yl)oxy)-3-methylphenyl)thieno[3,2-b]pyridin-2-yl)methyl)methanesulfonamide] | 1000 to 10000 nM |
| Cc1cc(Cl)cc(-c2ccnc3cc(CN4C(=O)CCC4=O)sc23)c1O[C@@H]1CNC[C@@H]1CF [Example 108, 1-((7-(5-Chloro-2-(((3S,4S)-4-(fluoromethyl)pyrrolidin-3-yl)oxy)-3-methylphenyl)thieno[3,2-b]pyridin-2-yl)methyl)pyrrolidine-2,5-dione] | < 1000 nM |
| Cc1cc(C#N)cc(-c2ncnc3cc(CN4C(=O)CCC4=O)sc23)c1O[C@@H]1CNC[C@@H]1F [Example 109, 3-(6-((2,5-Dioxopyrrolidin-1-yl)methyl)thieno[3,2-d]pyrimidin-4-yl)-4-(((3R,4S)-4-fluoropyrrolidin-3-yl)oxy)-5-methylbenzonitrile] | < 1000 nM |
| Cc1cc(C#N)cc(-c2ncnc3cc(CN4C(=O)c5ccccc5C4=O)sc23)c1O[C@@H]1CNC[C@@H]1F [Example 110, 3-(6-((1,3-Dioxoisoindolin-2-yl)methyl)thieno[3,2-d]pyrimidin-4-yl)-4-(((3R,4S)-4-fluoropyrrolidin-3-yl)oxy)-5-methylbenzonitrile] | < 1000 nM |
| Cc1cc(Cl)cc(-c2ccnc3cc(CN4C(=O)CCC4=O)sc23)c1O[C@@H]1CNC[C@@H]1C(F)F [Example 111, 1-((7-(5-Chloro-2-(((3S,4S)-4-(difluoromethyl)pyrrolidin-3-yl)oxy)-3-methylphenyl)thieno[3,2-b]pyridin-2-yl)methyl)pyrrolidine-2,5-dione] | < 1000 nM |
| Cc1cc(C#N)cc(-c2ccnc3cc(CN4C(=O)C5C6CCC(C6)C5C4=O)sc23)c1O[C@@H]1CNC[C@@H]1F (stereo partly drawn) [Example 112, 3-(2-((1,3-Dioxooctahydro-2H-4,7-methanoisoindol-2-yl)methyl)thieno[3,2-b]pyridin-7-yl)-4-(((3R,4S)-4-fluoropyrrolidin-3-yl)oxy)-5-methylbenzonitrile] | < 1000 nM |
| Cc1cc(Cl)cc(-c2ncnc3cc(CN4C(=O)CCC4=O)sc23)c1O[C@@H]1CNC[C@@H]1F [Example 113, 1-((4-(5-Chloro-2-(((3R,4S)-4-fluoropyrrolidin-3-yl)oxy)-3-methylphenyl)thieno[3,2-d]pyrimidin-6-yl)methyl)pyrrolidine-2,5-dione] | 1000 to 10000 nM |
| Cc1cc(C#N)cc(-c2ccnc3cc(CN4C(=O)CCS4(=O)=O)sc23)c1O[C@@H]1CNC[C@@H]1F [Example 114, 3-(2-((1,1-Dioxido-3-oxoisothiazolidin-2-yl)methyl)thieno[3,2-b]pyridin-7-yl)-4-(((3R,4S)-4-fluoropyrrolidin-3-yl)oxy)-5-methylbenzonitrile] | < 1000 nM |
| Cc1cc(C#N)cc(-c2ccnc3cc(COC4=NS(=O)(=O)CC4)sc23)c1O[C@@H]1CNC[C@@H]1F [Example 115, 3-(2-(((1,1-Dioxido-4,5-dihydroisothiazol-3-yl)oxy)methyl)thieno[3,2-b]pyridin-7-yl)-4-(((3R,4S)-4-fluoropyrrolidin-3-yl)oxy)-5-methylbenzonitrile] | 1000 to 10000 nM |
| Cc1cc(Cl)cc(-c2ccnc3cc(CN4C(=O)CCC4=O)sc23)c1O[C@@H]1CN[C@H](CO)C1 [Example 116, 1-((7-(5-Chloro-2-(((3S,5S)-5-(hydroxymethyl)pyrrolidin-3-yl)oxy)-3-methylphenyl)thieno[3,2-b]pyridin-2-yl)methyl)pyrrolidine-2,5-dione] | < 1000 nM |
| Cc1cc(Cl)cc(-c2ccnc3cc([C@H](C)N4C(=O)CCC4=O)sc23)c1O[C@@H]1CNC[C@@H]1F [Example 117, 1-((S)-1-(7-(5-Chloro-2-(((3R,4S)-4-fluoropyrrolidin-3-yl)oxy)-3-methylphenyl)thieno[3,2-b]pyridin-2-yl)ethyl)pyrrolidine-2,5-dione] | < 1000 nM |
| Cc1cc(Cl)cc(-c2ccnc3cc(CN4C(=O)CCC4=O)sc23)c1OC1CCNC1C (stereo not shown) [Example 118, 1-((7-(5-Chloro-3-methyl-2-((2-methylpyrrolidin-3-yl)oxy)phenyl)thieno[3,2-b]pyridin-2-yl)methyl)pyrrolidine-2,5-dione] | < 1000 nM |
| O=C1CCC(=O)N1Cc1cc2nccc(-c3cc(Cl)ccc3O[C@@H]3CNC[C@@H]3F)c2s1 [Example 119, 1-((7-(5-Chloro-2-(((3R,4S)-4-fluoropyrrolidin-3-yl)oxy)phenyl)thieno[3,2-b]pyridin-2-yl)methyl)pyrrolidine-2,5-dione] | 1000 to 10000 nM |
| O=C1CCC(=O)N1Cc1cc2nccc(-c3cc(Cl)cc(C(F)(F)F)c3O[C@@H]3CNC[C@@H]3F)c2s1 [Example 120, 1-((7-(5-Chloro-2-(((3R,4S)-4-fluoropyrrolidin-3-yl)oxy)-3-(trifluoromethyl)phenyl)thieno[3,2-b]pyridin-2-yl)methyl)pyrrolidine-2,5-dione] | < 1000 nM |
| N#Cc1cc(Cl)cc(-c2ccnc3cc(CN4C(=O)CCC4=O)sc23)c1O[C@@H]1CNC[C@@H]1F [Example 121, 5-Chloro-3-(2-((2,5-dioxopyrrolidin-1-yl)methyl)thieno[3,2-b]pyridin-7-yl)-2-(((3R,4S)-4-fluoropyrrolidin-3-yl)oxy)benzonitrile] | < 1000 nM |
| N#Cc1cc(Cl)c(O[C@@H]2CNC[C@@H]2F)c(-c2ccnc3cc(CN4C(=O)CCC4=O)sc23)c1 [Example 122, 3-Chloro-5-(2-((2,5-dioxopyrrolidin-1-yl)methyl)thieno[3,2-b]pyridin-7-yl)-4-(((3R,4S)-4-fluoropyrrolidin-3-yl)oxy)benzonitrile] | < 1000 nM |
| O=C1CCC(=O)N1Cc1cc2nccc(-c3cc(Cl)cc(Cl)c3O[C@@H]3CNC[C@@H]3F)c2s1 [Example 123, 1-((7-(3,5-Dichloro-2-(((3R,4S)-4-fluoropyrrolidin-3-yl)oxy)phenyl)thieno[3,2-b]pyridin-2-yl)methyl)pyrrolidine-2,5-dione] | < 1000 nM |
